This passage reports IC50 results from patent publication US20090170906A1, “HCV INHIBITORS” (priority 2004, published 2009).

This assay has as its system HCV genotype 1b strain Con1 replicon (ET replicon line, Huh7 cells). The assay is described as follows: ET replicon luciferase assay (HCV activity). As to conditions: Hepatitis C virus, Huh-7, Huh7 cells with HCV genotype 1b Con1 luciferase replicon, 72 hours incubation. The format is cell-based. As for the experimental part:
Compounds of the current invention are believed useful in the treatment and/or prophylaxis of conditions and diseases associated with HcV infection. Activity mediated through HCV was determined using an ET replicon line.
The Materials used include a Medium comprised of DMEM (1× liquid, high glucose); Invitrogen cat# 11965-092; 100× Penicillin/Streptomycin solution (10,000 Units/mL); Invitrogen cat# 15140-122; 100× Non-essential amino acid solution (10 mM); Invitrogen cat# 11140-050; Fetal bovine serum; JRH Biosciences cat# 12107-500M; Geneticin (50 mg/mL); Invitrogen cat# 10131-035
The Luciferase assay reagents include Steady-Glo Luciferase assay system, cat# E2550 (Promega)
The ET replicon line (see Lohmann et al. (1999), Replication of subgenomic hepatitis C virus RNAs in a hepatoma cell line. Science 285: 110-113; Krieger et al. (2001), Enhancement of hepatitis C virus RNA replication by cell culture-adaptive mutations. J. Virol. 75: 46144624; and Vrolijk et al. (2003), A replicon-based bioassay for the measurement of interferons in patients with chronic hepatitis C. J. Virol. Meth. 110: 201-209, each herein incorporated by reference with regard to the ET replicon line), includes Huh7 cells stably transfected with HCV genotype 1b strain Con1 replicon. This replicon expresses the firefly luciferase, has the coding region for ubiquitin inserted upstream of the neomycin gene, and carries three cell culture-adaptive mutations that enhance RNA replication cooperatively (E1202G, T1280I, and S2197P). The ET cell line was obtained under licence from: R^eBLikon GmbH, Nach dem alten Schloss 22, 55239 Gau-Odemheim, Germany.
Cells are maintained at 37° C., 5% CO2, in DMEM with 10% FCS, 1× penicillin/streptomycin, 1× non-essential amino acids, 0.5 mg/mL Geneticin. For passage, cells are washed once with PBS, and incubated at 37° C. with sufficient trypsin (0.05%)/versene to cover the monolayer. Once detached from the flask, cells are mixed with several mLs of DMEM+10% FBS to inactivate the trypsin, then diluted appropriately (usually 1 in 5 or 1 in 10) with sufficient medium to pass to a new flask. For a T225 flask, 40-50 mLs total volume of cells+medium is typically used. To prevent the density dependent drop in replicon RNA, the ET cell line is maintained at sub-confluent (60-80%) levels.
Compounds are diluted in DMSO across the first 10 wells of a Costar V-bottom 96-well plate using a Biomek 2000 Workstation (Beckman-Coulter), with 0.5 log10 dilution intervals. DMSO only is added to the last two columns of the plate. The top concentration of drug in this master plate is typically 2.5 mM. A 1/5 dilution of the compounds is made by adding DMEM+10% FBS with a multichannel pipettor, giving a top concentration of 500 μM. 5 μL of diluted compounds is transferred into black Costar flat bottom 96-well daughter plates using a RapidPlate workstation (Zymark).
Cells are grown to approximately 80% confluency and trypsinised as described above. Cells are counted in a Levy Hemocytometer and diluted to 20,000 cells/ml in DMEM containing 10% FBS, 1× penicillin/streptomycin, 1×NEAAs. (Note: Geneticin is omitted for the assay).
245 μL cell suspension is added to the first 11 columns of the daughter plates prepared as above using a Multidrop dispenser (Titertek). Thus, 5,000 cells are added per well, and the final top concentration of each compound is 10 μM. The twelfth column of each plate is used to generate background readings for the assay. Plates are incubated at 37° C., 5% CO2 for 72 hours.
Steady-Glo reagent is prepared according to the manufacturer's instructions, by mixing the Steady-Glo Buffer and Steady-Glo substrate Buffer at room temperature. Medium is removed from the 96-well plates containing ET cells treated with compound using a multi-channel aspirator. 100 μl of Steady-Glo reagent is added to each well using a multichannel pipettor or Multidrop dispensor. […]
(In general: In antiviral work, replicon cells carry a viral genome segment that copies itself.)
For `O=C(NC1CCCc2c1[nH]c1ccc(Br)cc21)c1ccccc1` (stereo not drawn) [Example 14A, N-(6-Bromo-2,3,4,9-tetrahydro-1H-carbazol-1-yl)benzamide], it took 17 nM to reach half-maximal inhibition (IC50).
Then `O=C(NC1CCCc2c1[nH]c1ccc(Br)cc21)c1ccccc1F` (stereo not drawn) [Example 29, N-(6-Bromo-2,3,4,9-tetrahydro-1H-carbazol-1-yl)-2-fluorobenzamide], with 6 nM.
Then `O=C(N[C@@H]1CCCc2c1[nH]c1ccc(Cl)cc21)c1ccccc1` [Example 36B, N-[(1R)-6-chloro-2,3,4,9-tetrahydro-1H-carbazol-1-yl]benzamide], with below 30 nM; and `O=C(NC1CCCc2c1[nH]c1ccc(Br)cc21)c1ccccn1` (stereo not drawn) [Example 38, N-(6-Bromo-2,3,4,9-tetrahydro-1H-carbazol-1-yl)pyridine-2-carboxamide], with 7 nM; and `O=C(N[C@@H]1CCCc2c1[nH]c1ccc(Cl)cc21)c1ccccn1` [Example 45B, N-[(1R)-6-chloro-2,3,4,9-tetrahydro-1H-carbazol-1-yl]pyridine-2-carboxamide], with 6 nM.
The figure for `O=C(N[C@@H]1CCCc2c1[nH]c1ccc(Cl)cc21)c1ccccc1F` [Example 46B, N-[(1R)-6-chloro-2,3,4,9-tetrahydro-1H-carbazol-1-yl]-2-fluorobenzamide] is 16 nM.

What is called IC50 is the midpoint of a concentration-inhibition curve.
